From patent publication US20260297060A1, “COMPOUNDS FOR THE DEGRADATION OF MUTANT BRAF” (C4 THERAPEUTICS, INC., priority 2023, published 2026)
Where two headings read alike, the source gives them in different places.

What was measured:
A375-NRAS^Q61K cells = assay: CTGlo Cell Viability Assay, A375-NRAS^Q61K (A375.11) cells, 96 hours; type: cell-based, human; details: Homo sapiens, A375.11 (A375-NRAS^Q61K) cells; for Emax: lowest % viability achieved
Summary of the method: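 Viability as CellTiter-Glo ATP luminescence after 96 h compound exposure at 37 °C; A375.11 (BRAF V600E/NRAS Q61K) cells at 250/well, top final concentration 10 μM in half-log steps. Signal was background-corrected and set relative to DMSO controls. A 4-parameter logistic fit gave GI50 (50% crossing) and Emax.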

BRAF V600E = molecular target: T1, BRAF V600E (Homo sapiens, UniProt P15056+Q96SW2, V600E); assay: BRAF V600E HiBiT Degradation Assay; type: cell-based
T1 construct: knock-in of the HiBiT tag to the endogenous BRAF V600E locus; host or cells: A375.10 (A375 clonal line, CRISPR HiBiT knock-in at the endogenous BRAF V600E locus)
T1 sequence (P15056 whole entry V600E): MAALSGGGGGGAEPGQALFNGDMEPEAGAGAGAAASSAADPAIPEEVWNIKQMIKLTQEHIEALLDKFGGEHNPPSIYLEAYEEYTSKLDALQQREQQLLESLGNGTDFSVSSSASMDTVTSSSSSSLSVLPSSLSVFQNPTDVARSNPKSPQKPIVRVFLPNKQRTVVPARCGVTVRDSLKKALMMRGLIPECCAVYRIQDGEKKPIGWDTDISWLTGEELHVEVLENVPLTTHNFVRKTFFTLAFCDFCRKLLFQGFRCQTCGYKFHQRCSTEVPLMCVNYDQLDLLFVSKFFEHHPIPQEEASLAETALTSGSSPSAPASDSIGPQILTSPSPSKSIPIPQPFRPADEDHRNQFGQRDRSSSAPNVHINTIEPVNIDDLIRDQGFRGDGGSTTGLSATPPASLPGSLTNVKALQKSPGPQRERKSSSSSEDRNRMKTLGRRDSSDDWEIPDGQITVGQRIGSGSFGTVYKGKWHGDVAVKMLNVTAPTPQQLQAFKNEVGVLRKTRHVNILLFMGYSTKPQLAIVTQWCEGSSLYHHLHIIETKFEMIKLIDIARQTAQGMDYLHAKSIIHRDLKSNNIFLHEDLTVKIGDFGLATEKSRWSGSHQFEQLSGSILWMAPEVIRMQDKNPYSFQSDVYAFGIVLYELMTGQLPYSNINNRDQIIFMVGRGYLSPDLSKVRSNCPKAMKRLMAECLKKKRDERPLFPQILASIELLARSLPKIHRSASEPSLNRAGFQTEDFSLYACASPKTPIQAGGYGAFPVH
T1 sequence (Q96SW2 whole entry): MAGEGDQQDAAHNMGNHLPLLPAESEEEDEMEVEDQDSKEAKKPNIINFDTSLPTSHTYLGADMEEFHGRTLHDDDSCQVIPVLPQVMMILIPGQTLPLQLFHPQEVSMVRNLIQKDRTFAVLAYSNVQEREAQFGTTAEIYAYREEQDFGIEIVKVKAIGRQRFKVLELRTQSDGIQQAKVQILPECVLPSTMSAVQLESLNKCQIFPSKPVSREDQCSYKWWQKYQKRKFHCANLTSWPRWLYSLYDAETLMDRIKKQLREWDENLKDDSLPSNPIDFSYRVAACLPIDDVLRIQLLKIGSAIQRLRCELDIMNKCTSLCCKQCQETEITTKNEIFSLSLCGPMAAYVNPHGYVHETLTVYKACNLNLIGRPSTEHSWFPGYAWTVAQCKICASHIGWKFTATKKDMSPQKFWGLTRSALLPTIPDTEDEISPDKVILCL
T1 sequence (Q16531 whole entry partner): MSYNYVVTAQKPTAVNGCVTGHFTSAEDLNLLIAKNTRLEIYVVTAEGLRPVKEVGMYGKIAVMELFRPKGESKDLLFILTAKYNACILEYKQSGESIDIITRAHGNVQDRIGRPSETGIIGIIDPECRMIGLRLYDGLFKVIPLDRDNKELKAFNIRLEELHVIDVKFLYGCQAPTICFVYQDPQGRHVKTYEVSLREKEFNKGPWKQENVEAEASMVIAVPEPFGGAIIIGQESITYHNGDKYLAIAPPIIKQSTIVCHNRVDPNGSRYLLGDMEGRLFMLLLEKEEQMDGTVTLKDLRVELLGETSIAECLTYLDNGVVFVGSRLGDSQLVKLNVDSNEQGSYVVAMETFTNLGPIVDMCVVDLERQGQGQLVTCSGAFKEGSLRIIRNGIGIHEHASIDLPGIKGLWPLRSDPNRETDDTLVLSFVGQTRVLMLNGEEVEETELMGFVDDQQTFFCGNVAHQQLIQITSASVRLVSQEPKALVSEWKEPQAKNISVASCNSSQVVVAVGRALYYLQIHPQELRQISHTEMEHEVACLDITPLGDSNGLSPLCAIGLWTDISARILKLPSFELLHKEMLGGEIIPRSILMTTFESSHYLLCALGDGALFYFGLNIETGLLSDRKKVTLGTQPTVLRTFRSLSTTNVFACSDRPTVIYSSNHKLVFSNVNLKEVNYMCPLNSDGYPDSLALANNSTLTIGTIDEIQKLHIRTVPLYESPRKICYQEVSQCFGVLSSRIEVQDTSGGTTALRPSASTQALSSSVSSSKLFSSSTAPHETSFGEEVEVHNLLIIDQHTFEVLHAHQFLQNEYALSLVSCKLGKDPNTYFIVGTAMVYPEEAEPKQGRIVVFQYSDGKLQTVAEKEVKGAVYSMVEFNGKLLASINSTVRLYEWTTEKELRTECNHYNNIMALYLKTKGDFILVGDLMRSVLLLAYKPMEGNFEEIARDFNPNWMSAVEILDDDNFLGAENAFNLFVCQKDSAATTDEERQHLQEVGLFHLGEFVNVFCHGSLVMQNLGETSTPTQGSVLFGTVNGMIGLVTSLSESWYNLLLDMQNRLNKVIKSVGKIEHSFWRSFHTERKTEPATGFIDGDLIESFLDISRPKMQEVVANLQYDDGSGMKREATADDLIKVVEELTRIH
Summary of the method: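 Endogenous HiBiT knock-in on BRAF V600E in A375 cells (clone A375.10); 11-point half-log series, top 10 μM, 2, 6 or 24 h at 37° C. Lytic HiBiT luminescence, background-subtracted, normalized to DMSO; 4-parameter fit gives DC50, Emax (residual protein) and IP (inflection point).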

[1] = A375.10 cells, BRAF V600E, 2 hours, residual protein remaining, read-out: HiBiT-Degradation A375.10 BRAF 2 hours Emax
[2] = read-out: HiBiT-Degradation A375.10 BRAF 2 hours DC50, A375.10 cells, BRAF V600E, 2 hours
[3] = read-out: HiBiT-Degradation A375.10 BRAF 2 hours IP, A375.10 cells, BRAF V600E, 2 hours, inflection point
[4] = A375.10 cells, BRAF V600E, 2 hours, inflection point, read-out: HiBiT-Degradation A375.10 BRAF 2 hours IP
[5] = A375.10 cells, BRAF V600E, 2 hours, read-out: HiBiT-Degradation A375.10 BRAF 2 hours DC50

SMILES | GI50 (A375-NRAS^Q61K cells; 96 h) [nM] | Emax (BRAF V600E; [1]) [%] | DC50 (BRAF V600E; [2]) [nM] | DC50 (BRAF V600E; [3]) [nM] | DC50 (BRAF V600E; [4]) [nM] | DC50 (BRAF V600E; [5]) [nM] | Emax (BRAF V600E; read-out: HiBiT-Degradation A375.10 BRAF 2 hours Emax, A375.10 cells, BRAF V600E, 2 hours, residual protein remaining) [%] | GI50 (A375-NRAS^Q61K cells) [nM] | Emax (BRAF V600E; read-out: HiBiT-Degradation A375.10 BRAF 2 hours Emax) [%] | Emax (A375-NRAS^Q61K cells; 96 h) [%] | Emax (A375-NRAS^Q61K cells) [%]
CN(CCO)S(=O)(=O)Nc1ccc(F)c(Oc2ccc3ncc(C4CC5(CCN(C6CC7(C6)CN(c6cc8c(cc6F)c(N6CCC(=O)NC6=O)nn8C)C7)CC5)C4)nc3c2)c1C#N (stereo not drawn) [Compound 187, 7-[2-cyano-6-fluoro-3-[[2-hydroxyethyl(methyl)sulfamoyl]amino]phenoxy]-2-[7-[2-[3-(2,4-dioxohexahydropyrimidin-1-yl)-5-fluoro-1-methyl-indazol-6-yl]-2-azaspiro[3.3]heptan-6-yl]-7-azaspiro[3.5]nonan-2-yl]quinoxaline] | > 10000 | 50 to 90 | 1000 to 10000 | < 1000 | – | – | – | – | – | 50 to 90 | –
CCN(C)S(=O)(=O)Nc1ccc(F)c(Oc2ccc3ncn(C4CC5(CCN(C6CC7(C6)CN(c6ccc(NC8CCC(=O)NC8=O)cc6F)C7)CC5)C4)c(=O)c3c2)c1F (stereo not drawn) [Compound 188, 3-[7-[2-[4-[(2,6-dioxo-3-piperidyl)amino]-2-fluoro-phenyl]-2-azaspiro[3.3]heptan-6-yl]-7-azaspiro[3.5]nonan-2-yl]-6-[3-[[ethyl(methyl)sulfamoyl]amino]-2,6-difluoro-phenoxy]-4-oxo-quinazoline] | > 10000 | 50 to 90 | – | – | < 1000 | < 1000 | – | – | – | 50 to 90 | –
CCN(C)S(=O)(=O)Nc1ccc(F)c(Oc2ccc3ncn([C@H]4COC5(CCC(N6CC[C@@H](c7ccc(NC8CCC(=O)NC8=O)cc7F)C(F)(F)C6)CC5)C4)c(=O)c3c2)c1C#N (stereo partly drawn) [Compound 189, 6-[2-cyano-3-[[ethyl(methyl)sulfamoyl]amino]-6-fluoro-phenoxy]-3-[(3R)-8-[(4S)-4-[4-[(2,6-dioxo-3-piperidyl)amino]-2-fluoro-phenyl]-3,3-difluoro-1-piperidyl]-1-oxaspiro[4.5]decan-3-yl]-4-oxo-quinazoline] | > 10000 | – | – | – | < 1000 | < 1000 | 50 to 90 | – | – | < 50 | –
CCN(C)S(=O)(=O)Nc1ccc(F)c(Oc2ccc3ncn([C@H]4COC5(CCN(C6C7COCC6CC(c6ccc(NC8CCC(=O)NC8=O)cc6F)C7)CC5)C4)c(=O)c3c2)c1C#N (stereo partly drawn) [Compound 194, (3R)-3-[6-[2-cyano-3-[[ethyl(methyl)sulfamoyl]amino]-6-fluoro-phenoxy]-4-oxo-quinazolin-3-yl]-8-[7-[4-[(2,6-dioxo-3-piperidyl)amino]-2-fluoro-phenyl]-3-oxabicyclo[3.3.1]nonan-9-yl]-1-oxa-8-azaspiro[4.5]decane] | – | – | – | – | < 1000 | > 10000 | – | > 10000 | 50 to 90 | – | 50 to 90

Continued, in another order:

GI50 (A375-NRAS^Q61K cells; 96 h) [nM] | Emax (BRAF V600E; [1]) [%] | DC50 (BRAF V600E; [2]) [nM] | DC50 (BRAF V600E; [3]) [nM] | DC50 (BRAF V600E; [4]) [nM] | DC50 (BRAF V600E; [5]) [nM] | Emax (BRAF V600E; read-out: HiBiT-Degradation A375.10 BRAF 2 hours Emax, A375.10 cells, BRAF V600E, 2 hours, residual protein remaining) [%] | GI50 (A375-NRAS^Q61K cells) [nM] | Emax (BRAF V600E; read-out: HiBiT-Degradation A375.10 BRAF 2 hours Emax) [%] | SMILES | Emax (A375-NRAS^Q61K cells; 96 h) [%] | Emax (A375-NRAS^Q61K cells) [%]
1000 to 10000 | 50 to 90 | > 10000 | < 1000 | – | – | – | – | – | CCN(C)S(=O)(=O)Nc1ccc(F)c(Oc2ccc3ncn([C@H]4COC5(CCN(C6CC7(C6)CN(c6ccc(NC8CCC(=O)NC8=O)cc6F)C7)CC5)C4)c(=O)c3c2)c1F (stereo partly drawn) [Compound 193, (3R)-8-[2-[4-[(2,6-dioxo-3-piperidyl)amino]-2-fluoro-phenyl]-2-azaspiro[3.3]heptan-6-yl]-3-[6-[3-[[ethyl(methyl)sulfamoyl]amino]-2,6-difluoro-phenoxy]-4-oxo-quinazolin-3-yl]-1-oxa-8-azaspiro[4.5]decane] | 50 to 90 | –
1000 to 10000 | 50 to 90 | – | – | < 1000 | 1000 to 10000 | – | – | – | CN(CCO)S(=O)(=O)Nc1ccc(F)c(Oc2ccc3ncn(C4CC5(CCN(C6CC7(C6)CN(c6cc8c(cc6F)c(N6CCC(=O)NC6=O)nn8C)C7)CC5)C4)c(=O)c3c2)c1F (stereo not drawn) [Compound 197, 6-[2,6-difluoro-3-[[2-hydroxyethyl(methyl)sulfamoyl]amino]phenoxy]-3-[7-[2-[3-(2,4-dioxohexahydropyrimidin-1-yl)-5-fluoro-1-methyl-indazol-6-yl]-2-azaspiro[3.3]heptan-6-yl]-7-azaspiro[3.5]nonan-2-yl]-4-oxo-quinazoline] | 50 to 90 | –
